Measurements reported in ChEMBL document CHEMBL5316328, “Discovery of AXL Degraders with Improved Potencies in Triple-Negative Breast Cancer (TNBC) Cells” (J Med Chem, 2023).
Calls of active or inactive are those of the source. The rule behind the calls is not given here.

How the values were obtained:
[1] = biological target: T1, Protein cereblon/Tyrosine-protein kinase receptor UFO (Homo sapiens, UniProt P30530+Q96SW2); test: PROTAC activity at CRBN/AXL in human MDA-MB-231 cells expressing AXL assessed as induction of AXL degradation at 0.016 to 10 nM incubated for 24 hrs by Western blot analysis; format: cell-based; conditions: dose 0.016-10 nM
[2] = Antitumor activity against patient-derived breast cancer organoid assessed as reduction in cell viability incubated for 120 hrs by CellTiter-Glo 3D assay; format: functional, tissue-based; conditions: Homo sapiens
MDA-MB-453 = test: Antiproliferative activity against human MDA-MB-453 cells assessed as inhibition of cell growth incubated for 72 hrs by CCK8 assay; format: functional, cell-based; conditions: MDA-MB-453, 72 h
MDA-MB-231 [3] = test: Induction of apoptosis in human MDA-MB-231 cells assessed as early apoptotic cells at 33.3 nM incubated for 48 hrs by Annexin V-PE staining based flow cytometric analysis (reference value: 3.95 to 3.74%); format: functional
MDA-MB-231 [4] = test: Induction of apoptosis in human MDA-MB-231 cells assessed as upregulation of cleaved PARP expression by Western blot analysis; format: functional, cell-based; conditions: dose 11.1-300 nM
MDA-MB-231 [5] = test: Induction of apoptosis in human MDA-MB-231 cells assessed as viable cells at 300 nM incubated for 48 hrs by Annexin V-PE staining based flow cytometric analysis (reference value: 92.59 to 92.71%); format: functional; conditions: read-out: Activity
MDA-MB-231 [6] = test: Induction of apoptosis in human MDA-MB-231 cells assessed as early apoptotic cells at 100 nM incubated for 48 hrs by Annexin V-PE staining based flow cytometric analysis (reference value: 3.95 to 3.74%); format: functional
[7] = biological target: Casein kinase I isoform alpha (Homo sapiens) (UniProt P48729); test: Induction of CK1alpha degradation in human MDA-MB-231 cells at 10 uM incubated for 24 hrs by Western blot analysis; format: cell-based
Mus musculus = test: In vivo PROTAC activity at CRBN/AXL in human MDA-MB-231 cells xenografted Balb/c mouse assessed as degradation of AXL in tumor at 10 to 20 mg/kg, ip administered for 22 days and measured 24 hrs post last dose by Western blot analysis; format: functional, organism-based; conditions: dose 10-20 mg/kg, time 23.0 day
[8] = biological target: T1, Protein cereblon/Tyrosine-protein kinase receptor UFO; test: PROTAC activity at CRBN/AXL in human MDA-MB-231 cells assessed as induction of AXL degradation by measuring half-life of AXL incubated upto 20 hrs in the presence of cycloheximide by Western blot analysis; format: cell-based
[9] = biological target: T1, Protein cereblon/Tyrosine-protein kinase receptor UFO; test: PROTAC activity at CRBN/AXL in human MDA-MB-436 cells expressing AXL assessed as induction of AXL degradation at 1.6 to 1000 nM incubated for 24 hrs by Western blot analysis; format: cell-based; conditions: dose 1.6-1000 nM
MDA-MB-231 [10] = test: Induction of cell cycle arrest in human MDA-MB-231 cells assessed as S phase cells at 100 nM incubated for 24 hrs by PI staining based flow cytometric analysis (reference value: 9.64 to 10.79%); format: functional
Homo sapiens [11] = species on record: Homo sapiens; test: Antitumor activity against patient-derived breast cancer organoid assessed as decrease in organoid size at 5 uM incubated for 120 hrs by bright-field imaging microscopic analysis; format: functional, tissue-based
MDA-MB-231 [12] = test: Inhibition of migration in human MDA-MB-231 cells incubated for 18 hrs by transwell assay; format: functional, cell-based; conditions: dose 3.7-100 nM
MDA-MB-231 [13] = test: Induction of apoptosis in human MDA-MB-231 cells assessed as viable cells at 100 nM incubated for 48 hrs by Annexin V-PE staining based flow cytometric analysis (reference value: 92.59 to 92.71%); format: functional; conditions: read-out: Activity
[14] = biological target: Serine/threonine-protein kinase AKT (Homo sapiens) (UniProt P31751+Q9Y243+P31749); test: Inhibition of AKT phosphorylation in human MDA-MB-231 incubated for 18 hrs by Western blot analysis; format: cell-based; conditions: dose 1.2-100 nM
MDA-MB-231 [15] = test: Induction of cell cycle arrest in human MDA-MB-231 cells assessed as accumulation of cell at G2/M phase at 33.3 nM incubated for 24 hrs by PI staining based flow cytometric analysis (reference value: 24.34 to 24.44%); format: functional
[16] = Toxicity in Balb/c nude mouse xenografted with human MDA-MB-231 cells assessed as effect on body weight at 10 to 20 mg/kg, ip administered for 22 days and measured 24 hrs post last dose; format: organism-based; conditions: in vivo, 552 h, dose 10-20 mg/kg, time 23 day
[17] = biological target: T1, Protein cereblon/Tyrosine-protein kinase receptor UFO; test: PROTAC activity at CRBN/AXL in human MDA-MB-231 cells assessed as induction of AXL degradation at 40 nM preincubated with MG-132 for 2 hrs followed by compound treatment and measured after 24 hrs by Western blot analysis; format: cell-based
MDA-MB-231 [18] = test: Induction of apoptosis in human MDA-MB-231 cells assessed as necrotic cells at 300 nM incubated for 48 hrs by Annexin V-PE staining based flow cytometric analysis (reference value: 2.64 to 3.23%); format: functional
MDA-MB-231 [19] = test: Induction of apoptosis in human MDA-MB-231 cells assessed as downregulation of caspase-9 expression by Western blot analysis; format: functional, cell-based; conditions: dose 11.1-300 nM
[20] = biological target: Zinc finger protein Aiolos (Homo sapiens) (UniProt Q9UKT9); test: Induction of IKZF3 degradation in human MDA-MB-231 cells at 10 uM incubated for 24 hrs by Western blot analysis; format: cell-based
MDA-MB-231 [21] = test: Induction of cell cycle arrest in human MDA-MB-231 cells assessed as decrease in cyclin B1 level at 11.1 to 300 nM by Western blot analysis; format: functional, cell-based; conditions: dose 11.1-300 nM
MDA-MB-231 [22] = test: Induction of cell cycle arrest in human MDA-MB-231 cells assessed as decrease in CDK2 level at 11.1 to 300 nM by Western blot analysis; format: functional, cell-based; conditions: dose 11.1-300 nM
MDA-MB-231 [23] = test: Induction of apoptosis in human MDA-MB-231 cells assessed as late apoptotic cells at 33.3 nM incubated for 48 hrs by Annexin V-PE staining based flow cytometric analysis (reference value: 0.32 to 0.82%); format: functional
MDA-MB-231 [24] = test: Inhibition of cell invasion in human MDA-MB-231 cells at 3.7 to 100 nM incubated for 18 hrs by transwell assay; format: functional, cell-based; conditions: dose 3.7-100 nM
MDA-MB-231 [25] = test: Induction of apoptosis in human MDA-MB-231 cells assessed as viable cells at 33.3 nM incubated for 48 hrs by Annexin V-PE staining based flow cytometric analysis (reference value: 92.59 to 92.71%); format: functional; conditions: read-out: Activity
[26] = biological target: T1, Protein cereblon/Tyrosine-protein kinase receptor UFO; test: PROTAC activity at CRBN/AXL in human MDA-MB-231 cells assessed as induction of AXL degradation at 40 nM by Western blot analysis; format: cell-based; conditions: time <= 72.0 hrs, TDE = time-dependent effect
MDA-MB-231 [27] = test: Antiproliferative activity against human MDA-MB-231 cells expressing AXL assessed as inhibition of cell growth incubated for 72 hrs by CCK8 assay; format: functional, cell-based; conditions: MDA-MB-231, 72 h
Homo sapiens [28] = species on record: Homo sapiens; test: Antitumor activity against patient-derived breast cancer organoid assessed as decrease in structure density at 5 uM incubated for 120 hrs by bright-field imaging microscopic analysis; format: functional, tissue-based
MDA-MB-231 [29] = test: Induction of cell cycle arrest in human MDA-MB-231 cells assessed as S phase cells at 33.3 nM incubated for 24 hrs by PI staining based flow cytometric analysis (reference value: 9.64 to 10.79%); format: functional

T1 sequence (P30530 26-894 limits assumed): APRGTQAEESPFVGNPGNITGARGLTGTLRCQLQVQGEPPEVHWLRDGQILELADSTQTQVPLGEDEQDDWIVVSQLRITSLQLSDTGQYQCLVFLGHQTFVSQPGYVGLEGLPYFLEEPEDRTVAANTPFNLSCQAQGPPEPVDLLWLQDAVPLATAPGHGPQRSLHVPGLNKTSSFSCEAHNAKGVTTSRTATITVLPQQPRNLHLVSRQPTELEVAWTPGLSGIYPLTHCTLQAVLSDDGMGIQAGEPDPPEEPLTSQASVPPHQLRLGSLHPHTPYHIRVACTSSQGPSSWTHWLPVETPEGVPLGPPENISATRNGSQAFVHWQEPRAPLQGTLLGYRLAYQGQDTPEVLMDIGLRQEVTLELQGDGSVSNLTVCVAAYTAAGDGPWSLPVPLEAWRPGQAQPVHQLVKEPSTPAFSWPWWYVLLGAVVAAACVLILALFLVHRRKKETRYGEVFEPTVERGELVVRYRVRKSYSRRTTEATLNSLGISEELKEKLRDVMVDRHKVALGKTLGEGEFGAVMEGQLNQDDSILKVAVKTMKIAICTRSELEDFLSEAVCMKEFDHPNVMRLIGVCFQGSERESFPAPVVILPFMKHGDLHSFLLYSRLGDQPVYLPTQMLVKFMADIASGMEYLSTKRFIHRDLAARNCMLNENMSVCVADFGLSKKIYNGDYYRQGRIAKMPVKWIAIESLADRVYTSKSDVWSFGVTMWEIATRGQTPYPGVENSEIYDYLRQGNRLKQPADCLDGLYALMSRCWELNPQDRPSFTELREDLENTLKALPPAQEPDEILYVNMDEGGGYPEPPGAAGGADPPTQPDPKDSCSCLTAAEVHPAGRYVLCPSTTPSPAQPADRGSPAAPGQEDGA
T1 sequence (Q96SW2 whole entry partner): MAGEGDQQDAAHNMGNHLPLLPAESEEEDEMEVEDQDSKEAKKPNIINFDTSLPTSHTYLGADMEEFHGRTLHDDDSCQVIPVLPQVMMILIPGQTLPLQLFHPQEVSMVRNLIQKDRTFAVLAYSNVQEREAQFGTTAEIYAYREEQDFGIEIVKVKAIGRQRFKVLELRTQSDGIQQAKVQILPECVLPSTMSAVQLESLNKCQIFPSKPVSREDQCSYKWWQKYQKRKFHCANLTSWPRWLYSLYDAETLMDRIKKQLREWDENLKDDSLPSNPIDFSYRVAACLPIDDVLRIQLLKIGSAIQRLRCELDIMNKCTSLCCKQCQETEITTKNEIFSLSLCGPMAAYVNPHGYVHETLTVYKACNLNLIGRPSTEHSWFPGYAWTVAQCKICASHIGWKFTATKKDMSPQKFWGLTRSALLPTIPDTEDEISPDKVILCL
Chain of Zinc finger protein Aiolos (Homo sapiens) (Q9UKT9 whole entry): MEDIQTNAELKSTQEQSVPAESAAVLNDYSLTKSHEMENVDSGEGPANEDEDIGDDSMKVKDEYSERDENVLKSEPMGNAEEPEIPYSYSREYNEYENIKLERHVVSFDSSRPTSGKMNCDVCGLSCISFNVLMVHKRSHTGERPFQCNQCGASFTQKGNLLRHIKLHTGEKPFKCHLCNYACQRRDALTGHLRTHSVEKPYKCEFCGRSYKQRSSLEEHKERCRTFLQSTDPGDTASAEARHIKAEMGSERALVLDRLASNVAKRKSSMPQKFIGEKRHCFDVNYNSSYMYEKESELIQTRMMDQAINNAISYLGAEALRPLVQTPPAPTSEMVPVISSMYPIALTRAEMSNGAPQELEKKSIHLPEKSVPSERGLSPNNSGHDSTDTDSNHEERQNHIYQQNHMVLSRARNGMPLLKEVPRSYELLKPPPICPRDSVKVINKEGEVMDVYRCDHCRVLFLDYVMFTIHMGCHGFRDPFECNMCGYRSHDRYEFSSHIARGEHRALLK
Chain of Casein kinase I isoform alpha (Homo sapiens) (P48729 2-337 limits assumed): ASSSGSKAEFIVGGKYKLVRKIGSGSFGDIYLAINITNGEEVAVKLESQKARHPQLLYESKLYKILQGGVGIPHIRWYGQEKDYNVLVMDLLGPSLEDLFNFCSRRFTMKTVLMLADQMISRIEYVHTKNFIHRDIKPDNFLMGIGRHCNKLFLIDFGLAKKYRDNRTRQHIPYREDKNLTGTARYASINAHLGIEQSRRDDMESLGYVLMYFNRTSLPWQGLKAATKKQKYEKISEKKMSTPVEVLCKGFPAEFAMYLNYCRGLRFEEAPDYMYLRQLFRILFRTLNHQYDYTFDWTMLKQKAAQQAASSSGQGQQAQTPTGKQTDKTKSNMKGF
Chain of Serine/threonine-protein kinase AKT (Homo sapiens) (P31749 whole entry, looked up): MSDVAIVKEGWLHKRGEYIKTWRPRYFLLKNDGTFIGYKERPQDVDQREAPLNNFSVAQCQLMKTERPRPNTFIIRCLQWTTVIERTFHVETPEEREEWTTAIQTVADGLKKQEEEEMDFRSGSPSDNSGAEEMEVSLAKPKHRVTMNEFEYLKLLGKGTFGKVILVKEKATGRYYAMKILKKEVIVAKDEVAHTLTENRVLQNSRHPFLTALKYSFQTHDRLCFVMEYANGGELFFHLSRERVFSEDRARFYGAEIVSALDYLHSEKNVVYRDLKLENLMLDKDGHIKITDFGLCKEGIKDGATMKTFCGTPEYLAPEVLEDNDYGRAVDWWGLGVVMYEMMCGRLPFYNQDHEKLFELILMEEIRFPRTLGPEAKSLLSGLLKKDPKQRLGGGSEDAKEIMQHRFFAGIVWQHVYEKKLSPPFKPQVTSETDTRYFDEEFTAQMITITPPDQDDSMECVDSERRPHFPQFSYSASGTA
Chain of Serine/threonine-protein kinase AKT (Homo sapiens) (P31751 whole entry, looked up): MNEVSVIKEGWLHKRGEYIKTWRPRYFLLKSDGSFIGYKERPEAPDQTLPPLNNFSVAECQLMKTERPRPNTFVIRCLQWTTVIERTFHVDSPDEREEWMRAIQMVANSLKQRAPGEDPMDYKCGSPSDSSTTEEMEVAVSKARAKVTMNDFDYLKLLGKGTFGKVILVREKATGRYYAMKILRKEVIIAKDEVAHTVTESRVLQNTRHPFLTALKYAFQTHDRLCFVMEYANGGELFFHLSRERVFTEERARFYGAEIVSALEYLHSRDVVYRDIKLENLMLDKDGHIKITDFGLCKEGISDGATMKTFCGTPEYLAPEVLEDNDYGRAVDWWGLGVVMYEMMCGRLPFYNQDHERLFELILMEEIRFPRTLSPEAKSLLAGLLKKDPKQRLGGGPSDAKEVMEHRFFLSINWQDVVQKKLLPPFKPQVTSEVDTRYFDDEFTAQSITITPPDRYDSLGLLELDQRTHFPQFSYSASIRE
Chain of Serine/threonine-protein kinase AKT (Homo sapiens) (Q9Y243 whole entry, looked up): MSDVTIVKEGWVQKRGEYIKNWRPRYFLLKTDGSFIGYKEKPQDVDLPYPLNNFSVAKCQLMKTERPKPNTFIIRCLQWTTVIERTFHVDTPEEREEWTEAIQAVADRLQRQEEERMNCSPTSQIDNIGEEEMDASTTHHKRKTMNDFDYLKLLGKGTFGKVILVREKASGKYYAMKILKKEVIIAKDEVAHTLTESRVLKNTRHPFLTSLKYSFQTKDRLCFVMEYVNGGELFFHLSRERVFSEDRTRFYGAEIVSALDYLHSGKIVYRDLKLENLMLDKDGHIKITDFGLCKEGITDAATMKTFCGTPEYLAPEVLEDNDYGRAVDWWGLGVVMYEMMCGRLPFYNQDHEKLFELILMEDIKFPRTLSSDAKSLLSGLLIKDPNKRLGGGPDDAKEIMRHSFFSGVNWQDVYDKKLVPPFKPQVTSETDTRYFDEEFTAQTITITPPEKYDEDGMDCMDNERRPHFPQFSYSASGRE

CCc1ccc2c(c1)c(=O)c(C(=O)Nc1ccc(Oc3ncnc4cc(OCCCCCC(=O)Nc5ccc6c(c5)CN(C5CCC(=O)NC5=O)C6=O)c(OC)cc34)c(F)c1)c(C)n2C (stereo unspecified)
Activity [1]: Active
IC50 [2]: 0.02 µM
IC50 (MDA-MB-453): > 5 µM
Activity (MDA-MB-231 [3]): 6.69%
Activity (MDA-MB-231 [4]): Dose-Dependent Effect
viability at 0.3 µM (MDA-MB-231 [5]): 74.1%
Activity (MDA-MB-231 [6]): 14.51%
Activity [7]: inactive
Activity (Mus musculus): Active
T1/2 [8]: 8 h
Activity [9]: Active
Activity (MDA-MB-231 [10]): 15.78%
Activity (Homo sapiens [11]): Active
inhibition (MDA-MB-231 [12]): Dose-Dependent Effect
viability at 0.1 µM (MDA-MB-231 [13]): 83.4%
inhibition [14]: Dose-Dependent Effect
Activity (MDA-MB-231 [15]): 22.85%
Activity [16]: Non-Toxic
Activity [17]: inactive
Activity (MDA-MB-231 [18]): 4.59%
Activity (MDA-MB-231 [19]): Dose-Dependent Effect
Activity [20]: inactive
Activity (MDA-MB-231 [21]): Active
Activity (MDA-MB-231 [22]): Active
Activity (MDA-MB-231 [23]): 0.56%
inhibition (MDA-MB-231 [24]): Active
viability at 0.0333 µM (MDA-MB-231 [25]): 91.5%
Activity [26]: Tde
IC50 (MDA-MB-231 [27]): 0.01 µM
Activity (Homo sapiens [28]): Active
Activity (MDA-MB-231 [29]): 14.52%
